# System: MCF-10A cells
# Assay: TGF-β1 induction of Sema7A gene expression by qRT-PCR
# Assay type: cell-based, human
# Conditions: 5 ng/ml, within 18 hours, vs vehicle
# Method: We then wanted to establish an in vitro system to study the functional role of Sema7A in the breast epithelia. To do so, we assayed the Sema7A expression in human breast cell lines with varying degrees of malignancy using quantitative real-time PCR (qRT-PCR).
# We treated MCF-10A cells with 5 ng/ml of TGF-β1 or vehicle for 18, 24 or 36 hours. MCF-10A cells were then assayed for Sema7A gene expression by qRT-PCR. […] TGF-β1 is a key inducer of epithelial to mesenchymal transition (EMT) and Sema7A could serve as a down-stream effecter of TGF-β1 in EMT.
substance,measurement,value
"TGF-β1: Transforming growth factor beta-1, used to induce Sema7A expression in MCF-10A breast epithelial cells",expression of Sema7A,significantly increased

# Reference: US20150111781A1, “ANALYZING SEMAPHORIN7A (Sema7A) LEVELS FOR ASSESSING CANCER METASTATIC POTENTIAL” (Florida Atlantic University, priority 2012, published 2015)
